From patent EP3053944B1, “METHOD FOR PRODUCING POLYALKYLENE GLYCOL DERIVATIVE HAVING AMINO GROUP AT END, POLYMERIZATION INITIATOR FOR USE IN THE SAME, AND ALCOHOL COMPOUND AS RAW MATERIAL FOR THE POLYMERIZATION INITIATOR” (Shin-Etsu Chemical Co., Ltd., priority 2014, dated 2016)

Experiments:
Type in all cases: physicochemical
[1] = Stability of the initiator when the alkoxide is formed (migration of protective group); conditions: on synthesis of the alkoxide
Source text: Since the silicon-oxygen bond is generally stronger than the silicon-nitrogen bond, there is a possibility that exchange reaction between the silicon-nitrogen bond and the silicon-oxygen bond progresses within a molecule during synthesis of a silyl-protected amino group-containing alkoxide in the case in which a five-membered ring or six-membered ring structure containing a silicon-oxygen bond can be formed. Therefore, when polymerization is tried using, for example, a compound represented by the following general formula (0a) as a polymerization initiator, polymerization progresses from the amino group side, not from the alkoxide side, and a target polyalkylene glycol derivative cannot be obtained. In contrast, in the polymerization initiator (for example, the following formulas (1a) and (2a)) represented by the general formulas (1) and/or (2) for use in the present embodiment 2, production of the five-membered or six-membered ring containing a silicon-oxygen bond is suppressed by extending the length of a chain that connects nitrogen and oxygen that constitutes O^-M^+ to 4 or more, so that a stable structure can be formed in a state of being an alkoxide. As a result thereof, polymerization progresses from the alkoxide side, and the target polyalkylene glycol derivative can be obtained. [drawing 36]

[2] = Solubility of polymerization initiators in polymerization solvents (visual observation); design: key to solubility to polymerization solvents: Toluene / solubility to polymerization solvents: THF: Excellent: In the case in which cloudiness was not observed at all in the solution by visual observation, the initiator was shown as "excellent"; Poor: in the case in which cloudiness was observed or the initiator did not dissolve at all, or in the case in which the initiator decomposed when the alkoxide was formed from the initiator, the initiator was shown as "poor"; conditions: for solubility to polymerization solvents: THF: initiator dissolved in THF at 20 wt.%; for solubility to polymerization solvents: THF / solubility to polymerization solvents: Toluene: visual observation; for solubility to polymerization solvents: Toluene: initiator dissolved in toluene at 20 wt.%; for dissolution in the solvent(s): summary in words of Table 8, THF or toluene, 20 wt.%
Source text: Results of solubility of the initiators 1-2, 6-7, 9-10 and 12, reference initiators 3-5, 8 and 11, and comparative initiators 1 to 8 to polymerization solvents are shown below. THF in each of the products of the initiators 1-2, 6-7, 9-10 and 12, reference initiators 3-5, 8 and 11, and the comparative initiators 1 to 8 synthesized above was distilled away under reduced pressure to extract the polymerization initiators. The results obtained by dissolving each polymerization initiator in each polymerization solvent at a concentration of 20 wt.% are shown. […]

[3] = Visual check for salt precipitation and cloudiness in the THF solution after initiator synthesis
Source text: Among others, as the solvent for use in the [Pre-Step 2], the same solvent as will be used as the polymerization solvent in the subsequent [Step a] as will be described later is preferably used. The reason is because whether the polymerization initiator synthesized in the [Pre-Step 2] dissolves or not in the polymerization solvent for use in the [Step a] can be confirmed in advance during the synthesis of the polymerization initiator in the [Pre-Step 2]. […] […] By confirming whether the precipitation of a salt and […] of the polymerization initiator represented by the general formula (I) in THF, the solubility of the polymerization initiator in the polymerization solvent in the subsequent [Step a] can be confirmed in advance.
In a glove box under a nitrogen atmosphere, […], and after the mineral oil was washed with hexane to be separated, vacuum drying was performed for about two hours to obtain 0.50 g (12.5 mmol) of potassium hydride. Into the flask, 7.71 g of distilled THF was added with a syringe, and 4.44 g (12.8 mmol) of the compound represented by the general formula (iA) was dripped at normal temperature. Stirring was performed at normal temperature for 1 hour and then at 50°C for 2 hours, so that 12.40 g (1.02 mmol/g) of a THF solution of the compound represented by the general formula (IA) was produced. […]

solubility to polymerization solvents: THF [2]	dissolution in the solvent(s) [2]	SMILES	stability of the initiator [1]	solubility to polymerization solvents: Toluene [2]	Precipitation of a salt and cloudiness ([3]; (IA) mass/THF solution mass=22.3 wt.%, prepared with potassium naphthalene)	Precipitation of a salt and cloudiness ([3]; (IA) mass/THF solution mass=39.8 wt.%, prepared with potassium hydride)
Excellent	dissolved in a solvent	CC(C)(C)OC(=O)N(CCCOCCO)C(=O)OC(C)(C)C [Initiator 9]	–	–	–	–
–	dissolved in a solvent	C=CCN(CC=C)CCCCCCO [Ref 11]	–	Excellent	–	–
Poor	did not dissolve in the solvents	C=CCN(CC=C)CCCO [Comparative initiator 3, reference compound]	–	Poor	–	–
Poor	did not dissolve in the solvents	O=C1c2ccccc2C(=O)N1CCCO [Comparative initiator 4, reference compound]	–	Poor	–	–
Excellent	dissolved in a solvent	OCCOCCOCCOCCCN(Cc1ccccc1)Cc1ccccc1 [Ref 8]	–	–	–	–
Poor	did not dissolve in the solvents	OCCCN(Cc1ccccc1)Cc1ccccc1 [Comparative initiator 7, reference compound]	–	Poor	–	–
Excellent	dissolved in a solvent	O=C1c2ccccc2C(=O)N1CCCOCCOCCOCCO [Ref 5]	–	–	–	–
Excellent	dissolved in a solvent	C=CCN(CC=C)CCCOCCOCCO [Ref 4]	–	–	–	–
Poor	did not dissolve in the solvents	CC(C)(C)OC(=O)N(CCCO)C(=O)OC(C)(C)C [Comparative initiator 8, reference compound]	–	Poor	–	–
–	–	CC[Si](CC)(CC)N(CCCOCCO)[Si](CC)(CC)CC [iA]	–	–	not observed	not observed
Excellent	dissolved in a solvent	C=CCN(CC=C)CCCOCCO [Ref 3]	–	–	–	–

SMILES	solubility to polymerization solvents: THF [2]	dissolution in the solvent(s) [2]	stability of the initiator [1]	solubility to polymerization solvents: Toluene [2]	Precipitation of a salt and cloudiness ([3]; (IA) mass/THF solution mass=22.3 wt.%, prepared with potassium naphthalene)	Precipitation of a salt and cloudiness ([3]; (IA) mass/THF solution mass=39.8 wt.%, prepared with potassium hydride)
C[Si](C)(C)N(CCCO)[Si](C)(C)C [Comparative initiator 2, reference compound]	Poor	–	changes in the position protected by a protective group progressed	Poor	–	–
C[Si]1(C)CC[Si](C)(C)N1CCCCCCO [Initiator 12]	–	dissolved in the solvent	stably existed	Excellent	–	–
CC(C)(C)[Si](C)(C)NCCCO [Comparative initiator 5, reference compound]	Poor	–	changes in the position protected by a protective group progressed	Poor	–	–
CC[Si](CC)(CC)N(CCCOCCO)[Si](CC)(CC)CC [Initiator 1]	Excellent	dissolved in the solvent	stably existed	–	–	–
C[Si]1(C)CC[Si](C)(C)N1CCCO [Comparative initiator 6, reference compound]	Poor	–	changes in the position protected by a protective group progressed	Poor	–	–
CC(C)(C)[Si](C)(C)NCCCOCCO [Initiator 6]	Excellent	dissolved in the solvent	stably existed	–	–	–
C[Si]1(C)CC[Si](C)(C)N1CCCOCCO [Initiator 7]	Excellent	dissolved in the solvent	stably existed	–	–	–
CC[Si](CC)(CC)N(CCCOCCOCCO)[Si](CC)(CC)CC [Initiator 2]	Excellent	dissolved in the solvent	stably existed	–	–	–
CC[Si](CC)(CC)N(CCCO)[Si](CC)(CC)CC [Comparative initiator 1, reference compound]	Poor	–	changes in the position protected by a protective group progressed	Poor	–	–
CC[Si](CC)(CC)N(CCCCCCO)[Si](CC)(CC)CC [Initiator 10]	–	dissolved in the solvent	stably existed	Excellent	–	–
